Data: article PMC7846792, “Perception of a divergent family of phytocytokines by the Arabidopsis receptor kinase MIK2” (Nature Communications, 2021)
No end group written: not given here.

System: A. thaliana seedlings
Test: Seedling growth inhibition (fresh weight)
Assay type: in vivo, Arabidopsis thaliana
Settings: mock mean = 1
Description: Four-day-old seedlings growing on MS plates were transferred individually into separate wells of transparent 48-well tissue culture plates (Greiner Bio-One) containing 500 μL of liquid MS media with/without elicitor addition. The plates were then transferred back to the growth conditions for an additional 10 days before seedlings were blot-dried and weighed.

Sequence: PVRSSRSPRSPSF [SCOOP2]
- Seedling fresh weight (Fig3C), relative to mock (Col-0, 1 μM, replicate 1): 1.166
- Seedling fresh weight (Fig3C), relative to mock (Col-0, 1 μM, replicate 2): 0.8827
- Seedling fresh weight (Fig3C), relative to mock (Col-0, 1 μM, replicate 3): 1.02
- Seedling fresh weight (Fig3C), relative to mock (Col-0, 1 μM, replicate 4): 1.184
- Seedling fresh weight (Fig3C), relative to mock (Col-0, 1 μM, replicate 5): 0.971
- Seedling fresh weight (Fig3C), relative to mock (Col-0, 1 μM, replicate 6): 0.6909
- Seedling fresh weight (Fig3C), relative to mock (Col-0, 1 μM, replicate 7): 0.9497
- Seedling fresh weight (Fig3C), relative to mock (Col-0, 1 μM, replicate 8): 0.9771
- Seedling fresh weight (Fig3C), relative to mock (Col-0, 1 μM, replicate 9): 0.9071
- Seedling fresh weight (Fig3C), relative to mock (Col-0, 1 μM, replicate 10): 0.9253
- Seedling fresh weight (Fig3C), relative to mock (Col-0, 1 μM, replicate 11): 0.8736
- Seedling fresh weight (Fig3C), relative to mock (Col-0, 1 μM, replicate 12): 0.9892
- Seedling fresh weight (Fig3C), relative to mock (Col-0, 10 μM, replicate 1): 0.6187
- Seedling fresh weight (Fig3C), relative to mock (Col-0, 10 μM, replicate 2): 0.9067
- Seedling fresh weight (Fig3C), relative to mock (Col-0, 10 μM, replicate 3): 0.8218
- Seedling fresh weight (Fig3C), relative to mock (Col-0, 10 μM, replicate 4): 0.6399
- Seedling fresh weight (Fig3C), relative to mock (Col-0, 10 μM, replicate 5): 0.5307
- Seedling fresh weight (Fig3C), relative to mock (Col-0, 10 μM, replicate 6): 0.5914
- Seedling fresh weight (Fig3C), relative to mock (Col-0, 10 μM, replicate 7): 0.649
- Seedling fresh weight (Fig3C), relative to mock (Col-0, 10 μM, replicate 8): 0.6005
- Seedling fresh weight (Fig3C), relative to mock (Col-0, 10 μM, replicate 9): 0.5337
- Seedling fresh weight (Fig3C), relative to mock (Col-0, 10 μM, replicate 10): 0.555
- Seedling fresh weight (Fig3C), relative to mock (Col-0, 10 μM, replicate 11): 0.7005
- Seedling fresh weight (Fig3C), relative to mock (Col-0, 10 μM, replicate 12): 0.6793
- Seedling fresh weight (Fig3C), relative to mock (mik2-1, 1 μM, replicate 1): 0.8038
- Seedling fresh weight (Fig3C), relative to mock (mik2-1, 1 μM, replicate 2): 0.7937
- Seedling fresh weight (Fig3C), relative to mock (mik2-1, 1 μM, replicate 3): 1.093
- Seedling fresh weight (Fig3C), relative to mock (mik2-1, 1 μM, replicate 4): 1.0157
- Seedling fresh weight (Fig3C), relative to mock (mik2-1, 1 μM, replicate 5): 1.096
- Seedling fresh weight (Fig3C), relative to mock (mik2-1, 1 μM, replicate 6): 0.8812
- Seedling fresh weight (Fig3C), relative to mock (mik2-1, 1 μM, replicate 7): 0.972
- Seedling fresh weight (Fig3C), relative to mock (mik2-1, 1 μM, replicate 8): 0.898
- Seedling fresh weight (Fig3C), relative to mock (mik2-1, 1 μM, replicate 9): 1.0157
- Seedling fresh weight (Fig3C), relative to mock (mik2-1, 1 μM, replicate 10): 1.002
- Seedling fresh weight (Fig3C), relative to mock (mik2-1, 1 μM, replicate 11): 1.083
- Seedling fresh weight (Fig3C), relative to mock (mik2-1, 1 μM, replicate 12): 1.063
- Seedling fresh weight (Fig3C), relative to mock (mik2-1, 10 μM, replicate 1): 1.068
- Seedling fresh weight (Fig3C), relative to mock (mik2-1, 10 μM, replicate 2): 1.011
- Seedling fresh weight (Fig3C), relative to mock (mik2-1, 10 μM, replicate 3): 0.7743
- Seedling fresh weight (Fig3C), relative to mock (mik2-1, 10 μM, replicate 4): 0.9434
- Seedling fresh weight (Fig3C), relative to mock (mik2-1, 10 μM, replicate 5): 0.8859
- Seedling fresh weight (Fig3C), relative to mock (mik2-1, 10 μM, replicate 6): 0.8014
- Seedling fresh weight (Fig3C), relative to mock (mik2-1, 10 μM, replicate 7): 1.0279
- Seedling fresh weight (Fig3C), relative to mock (mik2-1, 10 μM, replicate 8): 1.092
- Seedling fresh weight (Fig3C), relative to mock (mik2-1, 10 μM, replicate 9): 1.001
- Seedling fresh weight (Fig3C), relative to mock (mik2-1, 10 μM, replicate 10): 0.9772
- Seedling fresh weight (Fig3C), relative to mock (mik2-1, 10 μM, replicate 11): 1.058
- Seedling fresh weight (Fig3C), relative to mock (mik2-1, 10 μM, replicate 12): 1.106
